Data published in paper PMC3422259, “Additive Mixture Effects of Estrogenic Chemicals in Human Cell-Based Assays Can Be Influenced by Inclusion of Chemicals with Differing Effect Profiles” (PLoS ONE, 2012).
Read-outs that look alike come from different tables or passages of the source.

Columns and labels:
[1] = system: MCF-7 cells; assay: Estrogenicity assay, mitogenic endpoint (ESCREEN); parameters: Emax: dose or concentration left out as unconfirmed
Description: The ESCREEN assay was performed using cloned MCF-7 cells (described in [6], gifted from A. Soto, Boston) and the established ESCREEN method was followed using an adapted 96-well format. Cells were cultured in DMEM (5% FCS). For experiments, cells were seeded in clear polystyrene 96 well plates at a density of 2,500 cells/well and allowed to attach for 24 hours before washing with rinse media (phenol red-free DMEM, no supplements). […] Test chemicals were dissolved in ethanol to give stock solutions of millimolar concentrations. Test and control solutions were diluted prior to application in dosing media (phenol red free DMEM, 10% charcoal-dextran stripped FCS). The final concentration of ethanol was 0.5% in test and control wells. […] At all stages, media removal from cells was carried out gently and in a controlled fashion by use of an electronic multichannel pipette set to the lowest speed possible. Controls were run as eight replicate wells per plate and compounds were tested in a dilution series comprising eight concentrations, each concentration tested in two replicate wells per plate. The plate layout was designed to reduce variation due to evaporation and spreading of test chemicals, and had been previously optimised in the laboratory. After application of test solutions, plates were incubated for 120 hours before fixation with 10% trichloroacetic acid and sulforhodamine B (SRB) staining to measure protein and allow the indirect quantification of cell number.
(§1) Experiments were performed on different days meaning that results for different dilution series and different batches of the test chemicals were obtained on different days. Each single chemical was tested in three or more independent experiments. Use of normalisation meant that data from different experiments could be reliably combined and compared, as discussed previously. Data was expressed relative to the positive control, rather than as fold change from the vehicle response, for two reasons.
(§2) Results from regression analysis for each test chemicals were used to predict the CA effect for fixed-ratio mixtures designed on 1) equi-effective concentrations (balanced design), 2) possible human serum levels (non-balanced design). The original mathematical formulation of CA that defines for a mixture composed of n components with concentration c1 of the first component, c2 of the second component, and cn for the n-th component a combination effect X is [drawing 1] (1) Here, ECX1, ECX1 …, ECXn are the concentrations of the individual components that on their own produce the same effect X as the mixture, [15] The quotients cn/ECXn are called toxic units and scale all compounds in the mixture relative to their toxicity. They can be interpreted as the contribution of the compound to the total mixture concentration that is expected to produce the mixture effect X. According to equation 1, a mixture effect for a pre-defined effect level X is described only implicitly. However, if the individual concentrations ci are expressed as relative fractions pi to the total mixture concentration ECxMix, then equation 1 can be re-arranged to [drawing 2] (2) which allows the direct calculation of the mixture concentration that is expected to produce the mixture effect X. To form a prediction curve, equation 2 is iterated through for various effect levels resulting in sets of effects and their associated predicted mixture concentration which are then plotted to produce a graph of the effect prediction.
Both equations 1 and 2 require knowledge of the concentration of each mixture component that on its own produces the effect magnitude under consideration. For this reason, these equations cannot be used for predicting mixture effects that exceed the maximal effect of the least efficacious component, because those effect concentrations cannot be defined.

[2] = system: T47D-KBluc cells; assay: cells; parameters: Emax: dose or concentration left out as unconfirmed
Description: T47D-KBluc cells were obtained from the ATCC and the protocol established by the depositing authors was followed. Cells were routinely grown in RPMI media (with 10% foetal calf serum (FCS)). For seven days prior to experiments, cells were maintained in low estrogen conditions by the use of pre-assay media (RPMI, 10% charcoal-dextran stripped FCS, no antibiotics). For experiments, cells were seeded in white polystyrene 96 well plates at a density of 10,000 cells/well and allowed to attach for 24 hours before removal of media, and application of test chemicals. Test chemicals were dissolved in ethanol to give stock solutions of millimolar concentrations. Test and control solutions were obtained by dilution of ethanolic stocks in dosing media (phenol red-free RPMI, 5% charcoal-dextran stripped FCS, no antibiotics), and in all cases the final concentration of ethanol was 0.5%. The positive control was 1 nM estradiol. Positive and vehicle controls were run as eight replicate wells per plate, and compounds were tested in a dilution series comprising eight concentrations, each concentration tested in triplicate. As recommended by Wilson et al. two additional controls were also included on each plate: 1) vehicle control plus an antiestrogen, ICI 182,780 (1 µM), and 2) positive control plus ICI 182,780 (1 µM). […] A crude measure of toxicity was provided by comparing values for treatments that were not positive, with the value of the vehicle control. […] 24 hours after application of test and control solutions, a volume of Steady-Glo assay reagent (Promega) equal to the volume of culture media was added and plates were incubated for ten minutes, with shaking, to allow for cell lysis. Plates were then loaded into a plate reader (FLUOstar Optima, BMG Labtech) and incubated for a further ten minutes in the dark, followed by measurement of luminescence. To reduce variation, the temperature of the plate reader chamber was maintained at 27°C throughout.
as §1
Effect concentrations (ECx) were defined relative to the effects of the estradiol concentration used as the positive control, for example EC50 is the concentration producing an effect of 50% of the positive control (estradiol, 1 nM (ERLUX) or 25 nM (ESCREEN)).
as §2, with “implicitly.” for “implicitly. However, if the individual concentrations ci are expressed as relative fractions pi to the total mixture concentration ECxMix, then equation 1 can be re-arranged to [drawing 2] (2) which allows the direct calculation of the mixture concentration that is expected to produce the mixture effect X. To form a prediction curve, equation 2 is iterated through for various effect levels resulting in sets of effects and their associated predicted mixture concentration which are then plotted to produce a graph of the effect prediction.”

[3] = Homo sapiens, MCF7, read-out: Concentration Response Function θ^∧ max
[4] = Homo sapiens, read-out: Concentration Response Function θ^∧ max
[5] = Homo sapiens, read-out: Supramaximal response, of estradiol maxima
[6] = Homo sapiens, MCF7, read-out: Maxima at effect levels relative to that of estradiol (submaximal response)

| Compound | EC10 ([1]; Homo sapiens, MCF7, 120 h) | EC25 ([1]; Homo sapiens, MCF7, 120 h) | Emax [1, 3] | EC10 ([2]; Homo sapiens, 24 h) | EC25 ([2]; Homo sapiens, 24 h) | Emax [2, 4] | Emax [2, 5] | Emax [1, 6] | EC10 ([1]; ESCREEN, concentration provoking 10% effect relative to positive control 25 nM estradiol, 120 hours) | EC25 ([1]; ESCREEN, concentration provoking 25% effect relative to positive control 25 nM estradiol, 120 hours) | Concentration Response Function θ^∧ max ([1]; ESCREEN, estimated maximal model asymptote, effect relative to positive control (25 nM estradiol)) | EC10 ([2]; ERLUX, concentration producing 10% effect relative to positive control 1 nM estradiol, 24 hours) | EC25 ([2]; ERLUX, concentration producing 25% effect relative to positive control 1 nM estradiol, 24 hours) | Concentration Response Function θ^∧ max ([2]; ERLUX, estimated maximal model asymptote, effect relative to positive control (1 nM estradiol)) |
| --- | --- | --- | --- | --- | --- | --- | --- | --- | --- | --- | --- | --- | --- | --- |
| C#C[C@]1(O)CC[C@H]2[C@@H]3CCc4cc(O)ccc4[C@H]3CC[C@@]21C [EE2, Ethinyl estradiol, reference compound] | 0.000635 nM | 0.00181 nM | 114% | 0.000651 nM | 0.00132 nM | 105% | – | – | – | – | – | – | – | – |
| CCCOC(=O)c1ccc(O)cc1 [Propylparaben] | 997 nM | 2160 nM | 109% | 1300 nM | 2210 nM | 260% | – | – | – | – | – | – | – | – |
| C[C@]12CC[C@@H]3c4ccc(O)cc4CC[C@H]3[C@@H]1CC[C@@H]2O [Estradiol, reference compound] | 0.00112 nM | 0.00312 nM | 133% | 0.000653 nM | 0.00145 nM | 123% | – | – | – | – | – | – | – | – |
| O=c1oc2cc(O)ccc2c2oc3cc(O)ccc3c12 [Coumestrol] | 1.56 nM | 5 nM | 131% | 1.58 nM | 3.42 nM | 101% | – | – | – | – | – | – | – | – |
| OC[C@H](Cc1cccc(O)c1)[C@H](CO)Cc1cccc(O)c1 [Enterodiol] | 3850 nM | 7450 nM | 45% | – | – | – | – | – | – | – | – | – | – | – |
| CC(C)(c1ccc(O)cc1)c1ccc(O)cc1 [Bisphenol A] | 45.2 nM | 81.8 nM | 121% | 155 nM | 258 nM | 144% | 150% | – | – | – | – | – | – | – |
| c1ccc2c(c1)-c1cccc3cccc-2c13 [Fluoranthene] | 33900 nM | 88500 nM | 38% | 60000 nM | – | 16% | – | – | – | – | – | – | – | – |
| O=C1C[C@@H](c2ccc(O)cc2)Oc2cc(O)cc(O)c21 [Naringenin] | 360 nM | 833 nM | 110% | 310 nM | 506 nM | 114% | – | – | – | – | – | – | – | – |
| O=c1c(-c2ccc(O)cc2)coc2cc(O)cc(O)c12 [Genistein] | 4.61 nM | 13.6 nM | 93% | 12.4 nM | 19.6 nM | 148% | 200% | – | – | – | – | – | – | – |
| Brc1ccc(Oc2c(Br)cc(Br)cc2Br)c(Br)c1 [BDE100, Brominated diphenyl ether-100] | 704 nM | 2410 nM | 71% | 5360 nM | 12800 nM | 172% | – | – | – | – | – | – | – | – |
| CCCCOC(=O)c1ccc(O)cc1 [Butylparaben] | 571 nM | 1320 nM | 101% | 497 nM | 881 nM | 331% | 300% | – | – | – | – | – | – | – |
| O=C1OC[C@H](Cc2cccc(O)c2)[C@H]1Cc1cccc(O)c1 [Enterolactone] | 4150 nM | 7220 nM | 139% | 3770 nM | 8180 nM | 104% | – | – | – | – | – | – | – | – |
| Cc1ccc(/C=C2/C(=O)C3(C)CCC2C3(C)C)cc1 (centres unmarked) [4MBC, 4-methylbenzylidene camphor] | 899 nM | 2210 nM | 63% | 1810 nM | 5000 nM | 82% | – | 60 to 70% | – | – | – | – | – | – |
| Tonalide (AHTN) | – | – | – | – | – | – | – | – | 1970 nM | 6130 nM | 0.46 | 3610 nM | 206000 nM | 0.28 |
| COC(=O)c1ccc(O)cc1 [Methylparaben] | 7640 nM | 18000 nM | 79% | 8140 nM | 17100 nM | 206% | – | – | – | – | – | – | – | – |
| COc1ccc(C(=O)c2ccccc2)c(O)c1 [Benzophenone-3] | 1300 nM | 4310 nM | 63% | 2270 nM | 4610 nM | 177% | 150% | 60 to 70% | – | – | – | – | – | – |
| CC1COCc2cc3c(cc21)C(C)(C)C(C)C3(C)C (centres unmarked) [Galaxolide, Galaxolide (HHCB)] | 5390 nM | 12300 nM | 69% | 3930 nM | 7730 nM | 91% | – | – | – | – | – | – | – | – |
